Test results from PubChem BioAssay AID1963974 (Molecular Pharmacology Branch, DTP, NCI, 2024).

Test system: 648629-189-R-J1-PDC spheroids with HUVEC/MSC, viability
Experiment: Anticancer human tumor 648629-189-R-J1-PDC patient-derived bladder carcinoma cell line growth inhibition [PI3K]
Details: for IC50: curve of first compound; for viability, T/C: stronger effect = lower value
Summary of the method: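 Three cell types, namely tumor cells, endothelial cells and mesenchymal stem cells, formed each spheroid. Combinations with four PI3K inhibitors were screened at clinically achievable concentrations decreasing by half-log, and spheroid viability was recorded.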

[1] = second compound 0.0316 µM, first compound 0.0316 µM
[2] = second compound 0.0316 µM, first compound 0.1 µM
[3] = second compound 0.0316 µM, first compound 0.316 µM
[4] = second compound 0.0316 µM, first compound 1 µM
[5] = second compound 0.0316 µM, first compound 3.16 µM
[6] = second compound 0.0316 µM, first compound 10 µM
[7] = second compound 0.1 µM, first compound 0.0316 µM
[8] = second compound 0.1 µM, first compound 0.1 µM
[9] = second compound 0.1 µM, first compound 0.316 µM
[10] = second compound 0.1 µM, first compound 1 µM
[11] = second compound 0.1 µM, first compound 3.16 µM
[12] = second compound 0.1 µM, first compound 10 µM
[13] = second compound 0.316 µM, first compound 0.0316 µM
[14] = second compound 0.316 µM, first compound 0.1 µM
[15] = second compound 0.316 µM, first compound 0.316 µM
[16] = second compound 0.316 µM, first compound 1 µM
[17] = second compound 0.316 µM, first compound 3.16 µM
[18] = second compound 0.316 µM, first compound 10 µM
[19] = second compound 1 µM, first compound 0.0316 µM
[20] = second compound 1 µM, first compound 0.1 µM
[21] = second compound 1 µM, first compound 0.316 µM
[22] = second compound 1 µM, first compound 1 µM
[23] = second compound 1 µM, first compound 3.16 µM
[24] = second compound 1 µM, first compound 10 µM
[25] = second compound 3.16 µM, first compound 0.0316 µM
[26] = second compound 3.16 µM, first compound 0.1 µM
[27] = second compound 3.16 µM, first compound 0.316 µM
[28] = second compound 3.16 µM, first compound 1 µM
[29] = second compound 3.16 µM, first compound 3.16 µM
[30] = second compound 3.16 µM, first compound 10 µM
[31] = second compound 10 µM, first compound 0.0316 µM
[32] = second compound 10 µM, first compound 0.1 µM
[33] = second compound 10 µM, first compound 0.316 µM
[34] = second compound 10 µM, first compound 1 µM
[35] = second compound 10 µM, first compound 3.16 µM
[36] = second compound 10 µM, first compound 10 µM
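Note: spheroids exposed to agents for seven days before reading.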
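Throughout, for viability, T/C: percent of vehicle control luminescence where 100% = DMSO treated spheroids.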

## C=CC(=O)N1CCN(c2nc(=O)n(-c3c(C)ccnc3C(C)C)c3nc(-c4c(O)cccc4F)c(F)cc23)C(C)C1 (stereo not given) + Cc1nc(NC(=O)N2CCCC2C(N)=O)sc1-c1ccnc(C(C)(C)C(F)(F)F)c1
Second compound 0.0316 µM
  IC50: > 10 µM
Second compound 0.1 µM
  IC50: > 10 µM
Second compound 0.316 µM
  IC50: > 10 µM
Second compound 1 µM
  IC50: > 10 µM
Second compound 3.16 µM
  IC50: > 10 µM
Second compound 10 µM
  IC50: < 0.0316 µM
[1]
  viability, T/C: 99%
[2]
  viability, T/C: 101%
[3]
  viability, T/C: 107%
[4]
  viability, T/C: 105%
[5]
  viability, T/C: 113%
[6]
  viability, T/C: 82.8%
[7]
  viability, T/C: 92.2%
[8]
  viability, T/C: 102%
[9]
  viability, T/C: 107%
[10]
  viability, T/C: 99%
[11]
  viability, T/C: 106%
[12]
  viability, T/C: 90.3%
[13]
  viability, T/C: 83.5%
[14]
  viability, T/C: 95%
[15]
  viability, T/C: 95.6%
[16]
  viability, T/C: 96.3%
[17]
  viability, T/C: 107%
[18]
  viability, T/C: 84.7%
[19]
  viability, T/C: 73.4%
[20]
  viability, T/C: 82.7%
[21]
  viability, T/C: 87.5%
[22]
  viability, T/C: 86.5%
[23]
  viability, T/C: 88.2%
[24]
  viability, T/C: 79.7%
[25]
  viability, T/C: 61.2%
[26]
  viability, T/C: 57.5%
[27]
  viability, T/C: 65%
[28]
  viability, T/C: 72%
[29]
  viability, T/C: 72.5%
[30]
  viability, T/C: 70.8%
[31]
  viability, T/C: 39.5%
[32]
  viability, T/C: 40.7%
[33]
  viability, T/C: 42.4%
[34]
  viability, T/C: 41.5%
[35]
  viability, T/C: 47.1%
[36]
  viability, T/C: 38.4%

## CC(C)NCC(C(=O)N1CCN(c2ncnc3c2C(C)CC3O)CC1)c1ccc(Cl)cc1 (stereo not given) + Cc1nc(NC(=O)N2CCCC2C(N)=O)sc1-c1ccnc(C(C)(C)C(F)(F)F)c1
Second compound 0.0316 µM
  IC50: 0.719 µM
Second compound 0.1 µM
  IC50: 0.784 µM
Second compound 0.316 µM
  IC50: 0.648 µM
Second compound 1 µM
  IC50: 0.506 µM
Second compound 3.16 µM
  IC50: 0.154 µM
Second compound 10 µM
  IC50: < 0.0316 µM
[1]
  viability, T/C: 105%
[2]
  viability, T/C: 82.2%
[3]
  viability, T/C: 73.8%
[4]
  viability, T/C: 40.5%
[5]
  viability, T/C: 23.2%
[6]
  viability, T/C: 15.7%
[7]
  viability, T/C: 102%
[8]
  viability, T/C: 91%
[9]
  viability, T/C: 75.2%
[10]
  viability, T/C: 42.2%
[11]
  viability, T/C: 23.1%
[12]
  viability, T/C: 12.8%
[13]
  viability, T/C: 84.1%
[14]
  viability, T/C: 80.6%
[15]
  viability, T/C: 70.6%
[16]
  viability, T/C: 36.7%
[17]
  viability, T/C: 22%
[18]
  viability, T/C: 12.5%
[19]
  viability, T/C: 69.6%
[20]
  viability, T/C: 88.4%
[21]
  viability, T/C: 57.1%
[22]
  viability, T/C: 34.2%
[23]
  viability, T/C: 21.5%
[24]
  viability, T/C: 12.4%
[25]
  viability, T/C: 61.1%
[26]
  viability, T/C: 53.6%
[27]
  viability, T/C: 43.8%
[28]
  viability, T/C: 32.8%
[29]
  viability, T/C: 20.8%
[30]
  viability, T/C: 10.1%
[31]
  viability, T/C: 38%
[32]
  viability, T/C: 34.6%
[33]
  viability, T/C: 28.7%
[34]
  viability, T/C: 20.1%
[35]
  viability, T/C: 13.2%
[36]
  viability, T/C: 5.54%

## CCN1CCN(Cc2ccc(Nc3ncc(F)c(-c4cc(F)c5nc(C)n(C(C)C)c5c4)n3)nc2)CC1 + Cc1nc(NC(=O)N2CCCC2C(N)=O)sc1-c1ccnc(C(C)(C)C(F)(F)F)c1
Second compound 0.0316 µM
  IC50: > 1 µM
Second compound 0.1 µM
  IC50: > 1 µM
Second compound 0.316 µM
  IC50: > 1 µM
Second compound 1 µM
  IC50: > 1 µM
Second compound 3.16 µM
  IC50: > 1 µM
Second compound 10 µM
  IC50: < 0.00316 µM
Second compound 0.0316 µM, first compound 0.00316 µM
  viability, T/C: 96.4%
Second compound 0.0316 µM, first compound 0.01 µM
  viability, T/C: 107%
[1]
  viability, T/C: 104%
[2]
  viability, T/C: 99.2%
[3]
  viability, T/C: 119%
[4]
  viability, T/C: 120%
Second compound 0.1 µM, first compound 0.00316 µM
  viability, T/C: 101%
Second compound 0.1 µM, first compound 0.01 µM
  viability, T/C: 103%
[7]
  viability, T/C: 101%
[8]
  viability, T/C: 114%
[9]
  viability, T/C: 100%
[10]
  viability, T/C: 109%
Second compound 0.316 µM, first compound 0.00316 µM
  viability, T/C: 88.8%
Second compound 0.316 µM, first compound 0.01 µM
  viability, T/C: 93.7%
[13]
  viability, T/C: 90%
[14]
  viability, T/C: 91.6%
[15]
  viability, T/C: 96.9%
[16]
  viability, T/C: 101%
Second compound 1 µM, first compound 0.00316 µM
  viability, T/C: 78.2%
Second compound 1 µM, first compound 0.01 µM
  viability, T/C: 75.5%
[19]
  viability, T/C: 73%
[20]
  viability, T/C: 80.4%
[21]
  viability, T/C: 83.6%
[22]
  viability, T/C: 83.1%
Second compound 3.16 µM, first compound 0.00316 µM
  viability, T/C: 49.9%
Second compound 3.16 µM, first compound 0.01 µM
  viability, T/C: 57.7%
[25]
  viability, T/C: 53.8%
[26]
  viability, T/C: 59.3%
[27]
  viability, T/C: 64.7%
[28]
  viability, T/C: 69.8%
Second compound 10 µM, first compound 0.00316 µM
  viability, T/C: 41.9%
Second compound 10 µM, first compound 0.01 µM
  viability, T/C: 38.8%
[31]
  viability, T/C: 40.7%
[32]
  viability, T/C: 41.5%
[33]
  viability, T/C: 43.5%
[34]
  viability, T/C: 41.6%

## Cn1ncc(Cl)c1-c1cc(C(=O)NC(CN)Cc2cccc(F)c2)sc1Cl (stereo not given) + Cc1nc(NC(=O)N2CCCC2C(N)=O)sc1-c1ccnc(C(C)(C)C(F)(F)F)c1
Second compound 0.0316 µM
  IC50: 0.51 µM
Second compound 0.1 µM
  IC50: 0.405 µM
Second compound 0.316 µM
  IC50: 0.312 µM
Second compound 1 µM
  IC50: 0.218 µM
Second compound 3.16 µM
  IC50: 0.0759 µM
Second compound 10 µM
  IC50: < 0.0316 µM
[1]
  viability, T/C: 105%
[2]
  viability, T/C: 97%
[3]
  viability, T/C: 55.6%
[4]
  viability, T/C: 34.7%
[5]
  viability, T/C: 17.9%
[6]
  viability, T/C: 2.36%
[7]
  viability, T/C: 90.8%
[8]
  viability, T/C: 76.8%
[9]
  viability, T/C: 56.9%
[10]
  viability, T/C: 27.6%
[11]
  viability, T/C: 17.5%
[12]
  viability, T/C: 1.87%
[13]
  viability, T/C: 89.6%
[14]
  viability, T/C: 73.8%
[15]
  viability, T/C: 48.2%
[16]
  viability, T/C: 28%
[17]
  viability, T/C: 15.1%
[18]
  viability, T/C: 1.73%
[19]
  viability, T/C: 72.8%
[20]
  viability, T/C: 66.6%
[21]
  viability, T/C: 41%
[22]
  viability, T/C: 23.3%
[23]
  viability, T/C: 13.6%
[24]
  viability, T/C: 1.42%
[25]
  viability, T/C: 55.2%
[26]
  viability, T/C: 50.3%
[27]
  viability, T/C: 34.4%
[28]
  viability, T/C: 20.5%
[29]
  viability, T/C: 12.2%
[30]
  viability, T/C: 1.25%
[31]
  viability, T/C: 36.9%
[32]
  viability, T/C: 31.7%
[33]
  viability, T/C: 20.4%
[34]
  viability, T/C: 13.5%
[35]
  viability, T/C: 7.71%
[36]
  viability, T/C: 0.35%

## Cn1nccc1Nc1nccc(-c2ccn(C(CO)c3ccc(Cl)c(F)c3)c(=O)c2)n1 (stereo not given) + Cc1nc(NC(=O)N2CCCC2C(N)=O)sc1-c1ccnc(C(C)(C)C(F)(F)F)c1
Second compound 0.0316 µM
  IC50: > 10 µM
Second compound 0.1 µM
  IC50: > 10 µM
Second compound 0.316 µM
  IC50: > 10 µM
Second compound 1 µM
  IC50: > 10 µM
Second compound 3.16 µM
  IC50: > 10 µM
Second compound 10 µM
  IC50: < 0.0316 µM
[1]
  viability, T/C: 120%
[2]
  viability, T/C: 96.2%
[3]
  viability, T/C: 112%
[4]
  viability, T/C: 112%
[5]
  viability, T/C: 111%
[6]
  viability, T/C: 74.7%
[7]
  viability, T/C: 93.5%
[8]
  viability, T/C: 105%
[9]
  viability, T/C: 108%
[10]
  viability, T/C: 104%
[11]
  viability, T/C: 96.1%
[12]
  viability, T/C: 79.2%
[13]
  viability, T/C: 94.3%
[14]
  viability, T/C: 97.6%
[15]
  viability, T/C: 98.1%
[16]
  viability, T/C: 102%
[17]
  viability, T/C: 92.8%
[18]
  viability, T/C: 75.4%
[19]
  viability, T/C: 83.3%
[20]
  viability, T/C: 79.4%
[21]
  viability, T/C: 72.8%
[22]
  viability, T/C: 85.7%
[23]
  viability, T/C: 82.2%
[24]
  viability, T/C: 70.6%
[25]
  viability, T/C: 64.4%
[26]
  viability, T/C: 63.1%
[27]
  viability, T/C: 56.8%
[28]
  viability, T/C: 72.1%
[29]
  viability, T/C: 67.1%
[30]
  viability, T/C: 67.1%
[31]
  viability, T/C: 40.2%
[32]
  viability, T/C: 39.5%
[33]
  viability, T/C: 41.5%
[34]
  viability, T/C: 45.5%
[35]
  viability, T/C: 54.9%
[36]
  viability, T/C: 55.1%
